Measured values as given in US9765018B2, “IDO inhibitors” (BRISTOL-MYERS SQUIBB COMPANY, priority 2013, dated 2017).

Tests used:
Human IDO1 = Human IDO1 (Homo sapiens (Human), UniProt P14902); assay: IDO Kynurenine Assay with Human IDO1/HEK293 Cells; assay type: cell-based; conditions: HEK293 cells with human IDO1; read-out: HEK human IDO-1 (IC50)
Experimental: IDO Kynurenine Assay with Human IDO1/HEK293 Cells
Human IDO1/HEK293 cells were seeded at 10,000 cells per 50 uL per well with RPMI/phenol red free media contains 10% FBS in a 384-well black wall clear bottom tissue culture plate (Matrix Technologies LLC) 125 nL of certain concentration of compound was then added to each well using ECHO liquid handling systems. The cells were incubated for 20 hours in 37° C. incubator with 5% CO2.
The compound treatments were stopped by adding Trichloroacetic Acid (Sigma-Aldrich) to a final concentration at 0.2%. The cell plate was further incubated at 50° C. for 30 minute. The equal volume supernatant (20 uL) and 0.2% (w/v) Ehrlich reagent (4-dimethylaminobenzaldehyde, Sigma-Aldrich) in glacial acetic acid were mixed in a new clear bottom 384-well plate. This plate was then incubated at room temperature for 30 minute. The absorbance at 490 nm was measured on Envision plate reader.

IDO [1] = target: T1, IDO (Homo sapiens (Human), UniProt P14902); assay: Kynurenine assay in IFN-γ-stimulated Hela cells; assay type: cell-based; conditions: 20 h, read-out: Hela Kyurenine (IC50)
T1 sequence (P14902 whole entry): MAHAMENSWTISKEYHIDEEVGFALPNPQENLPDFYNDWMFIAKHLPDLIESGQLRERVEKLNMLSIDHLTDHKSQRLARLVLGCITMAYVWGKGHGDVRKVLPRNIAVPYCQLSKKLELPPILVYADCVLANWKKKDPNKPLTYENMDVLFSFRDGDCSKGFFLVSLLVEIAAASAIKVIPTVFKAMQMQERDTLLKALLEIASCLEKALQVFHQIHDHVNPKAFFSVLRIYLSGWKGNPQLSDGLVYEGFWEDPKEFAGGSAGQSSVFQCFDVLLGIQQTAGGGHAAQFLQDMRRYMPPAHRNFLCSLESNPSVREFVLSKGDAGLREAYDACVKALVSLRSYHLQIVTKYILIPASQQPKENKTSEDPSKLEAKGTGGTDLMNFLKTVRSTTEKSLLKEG
Summary of the method: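 Hela cells adhered 5-6 h, then received inhibitor (top dose 30 μM, 3-fold dilutions to 1.5 nM) plus 100 ng/mL human IFN-γ to induce IDO, 20 h at 37° C. TCA added, 30 min at 50° C hydrolyses N-formylkynurenine to kynurenine. Supernatant mixed with Ehrlich reagent, 10 min RT, absorbance 490 nm.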

IDO [2] = target: T1, IDO; assay: LLE_IDO_ABS_DR (IDO assay, method not described)

Human IDO1, sequence (P14902 whole entry): as above

COc1ccc(-c2ccc(Oc3cccc4c3OC(C)(C)C4)c(NC(=O)Nc3ccc(C)cc3)c2)cc1C(=O)O [Example 135, 4′-(2,2-dimethyl-2,3-dihydrobenzofuran-7-yloxy)-4-methoxy-3′-(3-p-tolylureido)biphenyl-3-carboxylic acid]
IC50 (Human IDO1): 5170 nM
IC50 (IDO [1]): 2240 nM

CC(C)(C)c1ccccc1Oc1ccc(-c2cccc(C(=O)O)c2)cc1NC(=O)Nc1ccc(Cl)cc1 [Example 232, 4′-(2-tert-butylphenoxy)-3′-(3-(4-chlorophenyl)ureido)biphenyl-3-carboxylic acid]
IC50 (Human IDO1): 7500 nM
IC50 (IDO [1]): 1800 nM

Cc1ccc(NC(=O)Nc2cc(-c3cccc(Cl)c3C(=O)O)ccc2Oc2ccccc2C(C)(C)C)cc1 [Example 174, 4′-(2-tert-butylphenoxy)-3-chloro-3′-(3-p-tolylureido)biphenyl-2-carboxylic acid]
IC50 (IDO [1]): 280 nM
IC50 (IDO [2]): 320 nM

COc1ccc(-c2ccc(Oc3cccc4c3CCCC4)c(NC(=O)Nc3ccc(F)cc3F)c2)cc1C(=O)O [Example 154, 3′-(3-(2,4-difluorophenyl)ureido)-4-methoxy-4′-(5,6,7,8-tetrahydronaphthalen-1-yloxy)biphenyl-3-carboxylic acid]
IC50 (IDO [1]): 140 nM
IC50 (IDO [2]): 540 nM

Cc1ccccc1NC(=O)Nc1cc(-c2cccc(F)c2C(=O)O)ccc1Oc1ccccc1C(C)(C)C [Example 175, 4′-(2-tert-butylphenoxy)-3-fluoro-3′-(3-o-tolylureido)biphenyl-2-carboxylic acid]
IC50 (IDO [1]): 1480 nM
IC50 (IDO [2]): 2580 nM

COc1ccc(-c2ccc(Oc3c(C)cccc3C(C)(C)C)c(NC(=O)Nc3cccc(C)c3)c2)cc1C(=O)O [Example 60, 4′-(2-tert-butyl-6-methylphenoxy)-4-methoxy-3′-(3-m-tolylureido)biphenyl-3-carboxylic acid]
IC50 (IDO [1]): 310 nM
IC50 (IDO [2]): 1150 nM

CCc1ccccc1Oc1ccc(-c2ccc(OC)c(C(=O)O)c2)cc1NC(=O)Nc1cccc(C)c1 [Example 57, 4′-(2-ethylphenoxy)-4-methoxy-3′-(3-m-tolylureido)biphenyl-3-carboxylic acid]
IC50 (IDO [1]): 130 nM
IC50 (IDO [2]): 390 nM

COc1ccc(-c2ccc(Oc3cccc4c3OC(C)(C)C4)c(NC(=O)Nc3ccccc3Cl)c2)cc1C(=O)O [Example 133, 3′-(3-(2-chlorophenyl)ureido)-4′-(2,2-dimethyl-2,3-dihydrobenzofuran-7-yloxy)-4-methoxybiphenyl-3-carboxylic acid]
IC50 (IDO [1]): 590 nM
IC50 (IDO [2]): 1830 nM

O=C(Nc1ccc(Cl)cc1)Nc1cc(-c2ccccc2-c2nnn[nH]2)cc(CC2CC2)c1OC1CCOCC1 [Example 331]
IC50 (IDO [1]): 520 nM
IC50 (IDO [2]): 810 nM

Cc1ccc(NC(=O)Nc2cc(-c3ccccc3-c3nnn[nH]3)ccc2Oc2cccc3c2CCCC3)cc1 [Example 185, 1-(4-(5,6,7,8-tetrahydronaphthalen-1-yloxy)-2′-(1H-tetrazol-5-yl)biphenyl-3-yl)-3-p-tolylurea]
IC50 (IDO [1]): 160 nM
IC50 (IDO [2]): 680 nM

Cc1ccccc1NC(=O)Nc1cc(-c2cccc(Cl)c2C(=O)O)ccc1Oc1ccccc1C(C)(C)C [Example 173, 4′-(2-tert-butylphenoxy)-3-chloro-3′-(3-o-tolylureido)biphenyl-2-carboxylic acid]
IC50 (IDO [1]): 1630 nM
IC50 (IDO [2]): 3070 nM

COc1ccc(-c2ccc(Oc3ccccc3C(C)(C)C)c(NC(=O)Nc3ccccc3Cl)c2)c(-c2nnn[nH]2)c1 [Example 192, 1-(4-(2-tert-butylphenoxy)-4′-methoxy-2′-(1H-tetrazol-5-yl)biphenyl-3-yl)-3-(2-chlorophenyl)urea]
IC50 (IDO [1]): 370 nM
IC50 (IDO [2]): 1440 nM

COc1ccc(-c2ccc(Oc3ccccc3Cl)c(NC(=O)Nc3ccccc3Cl)c2)cc1C(=O)O [Example 49, 4′-(2-chlorophenoxy)-3′-(3-(2-chlorophenyl)ureido)-4-methoxybiphenyl-3-carboxylic acid]
IC50 (IDO [1]): 590 nM
IC50 (IDO [2]): 2630 nM

COc1ccc(-c2ccc(Oc3ccccc3C3CC3)c(NC(=O)Nc3ccccc3Cl)c2)cc1C(=O)O [Example 124, 3′-(3-(2-chlorophenyl)ureido)-4′-(2-cyclopropylphenoxy)-4-methoxybiphenyl-3-carboxylic acid]
IC50 (IDO [1]): 140 nM
IC50 (IDO [2]): 820 nM

COc1ccc(-c2ccc(Oc3ccccc3C(C)(C)C)c(NC(=O)Nc3cccc(C)c3)c2)cc1C(=O)O [Example 45, 4′-(2-tert-butylphenoxy)-4-methoxy-3′-(3-m-tolylureido)biphenyl-3-carboxylic acid]
IC50 (IDO [1]): 150 nM
IC50 (IDO [2]): 390 nM

COc1ccccc1NC(=O)Nc1cc(-c2ccc(OC)c(C(=O)O)c2)ccc1Oc1ccccc1C(C)(C)C [Example 83, 4′-(2-(tert-butyl)phenoxy)-4-methoxy-3′-(3-(2-methoxyphenyl)ureido)-[1,1′-biphenyl]-3-carboxylic acid]
IC50 (IDO [1]): 210 nM
IC50 (IDO [2]): 1190 nM

COc1ccc(-c2ccc(Oc3ccccc3C3CC3)c(NC(=O)Nc3cccc(C)c3)c2)cc1C(=O)O [Example 126, 4′-(2-cyclopropylphenoxy)-4-methoxy-3′-(3-m-tolylureido)biphenyl-3-carboxylic acid]
IC50 (IDO [1]): 190 nM
IC50 (IDO [2]): 760 nM

CC(C)(C)c1ccccc1Oc1ccc(-c2ccc(F)cc2C(=O)O)cc1NC(=O)Nc1ccccc1Cl [Example 169, 4′-(2-tert-butylphenoxy)-3′-(3-(2-chlorophenyl)ureido)-4-fluorobiphenyl-2-carboxylic acid]
IC50 (IDO [1]): 660 nM
IC50 (IDO [2]): 2340 nM

CC(C)(C)c1ccccc1Oc1ccc(-c2ccc(C(=O)O)c(Cl)c2)cc1NC(=O)Nc1ccccc1Cl [Example 215, 4′-(2-tert-butylphenoxy)-3-chloro-3′-(3-(2-chlorophenyl)ureido)biphenyl-4-carboxylic acid]
IC50 (IDO [1]): 300 nM
IC50 (IDO [2]): 1830 nM

COc1ccc(-c2ccc(O[C@@H]3CCCC[C@H]3C)c(NC(=O)Nc3ccccc3Cl)c2)cc1C(=O)O (relative stereo) [Example 132, 3′-(3-(2-chlorophenyl)ureido)-4-methoxy-4′-((trans)-2-methylcyclohexyloxy)biphenyl-3-carboxylic acid]
IC50 (IDO [1]): 990 nM
IC50 (IDO [2]): 1460 nM

COc1ccc(-c2ccc(Oc3ccccc3C(C)(C)C)c(NC(=O)Nc3cccc(Cl)c3Cl)c2)cc1C(=O)O [Example 81, 4′-(2-(tert-butyl)phenoxy)-3′-(3-(2,3-dichlorophenyl)ureido)-4-methoxy-[1,1′-biphenyl]-3-carboxylic acid]
IC50 (IDO [1]): 130 nM
IC50 (IDO [2]): 320 nM

COc1ccc(-c2cnc(Oc3cccc4c3CCCC4)c(NC(=O)Nc3ccccc3Cl)c2C)cc1C(=O)O [Example 3, 5-(5-(3-(2-Chlorophenyl)ureido)-4-methyl-6-(5,6,7,8-tetrahydronaphthalen-1-yloxy)pyridin-3-yl)-2-methoxybenzoic acid]
IC50 (IDO [1]): 3380 nM
IC50 (IDO [2]): 4810 nM

CC(C)(C)c1ccccc1Oc1ccc(-c2ccc(Cl)cc2C(=O)O)cc1NC(=O)Nc1ccccc1Cl [Example 158, 4′-(2-tert-butylphenoxy)-4-chloro-3′-(3-(2-chlorophenyl)ureido)biphenyl-2-carboxylic acid]
IC50 (IDO [1]): 860 nM
IC50 (IDO [2]): 4060 nM

Cc1ccccc1NC(=O)Nc1cc(-c2cc(Cl)cc(C(=O)O)c2)ccc1Oc1ccccc1C(C)(C)C [Example 238, 4′-(2-tert-butylphenoxy)-5-chloro-3′-(3-o-tolylureido) biphenyl-3-carboxylic acid]
IC50 (IDO [1]): 440 nM
IC50 (IDO [2]): 10000 nM

Cc1ccc(NC(=O)Nc2cc(-c3ccc(Cl)cc3C(=O)O)ccc2Oc2ccccc2C(C)(C)C)cc1 [Example 161, 4′-(2-tert-butylphenoxy)-4-chloro-3′-(3-p-tolylureido)biphenyl-2-carboxylic acid]
IC50 (IDO [1]): 50 nM
IC50 (IDO [2]): 240 nM

COc1ccc(-c2ccc(Oc3ccccc3C(C)(C)C)c(NC(=O)Nc3ccc(C)cc3)c2)c(C(=O)O)c1 [Example 163, 4′-(2-tert-butylphenoxy)-4-methoxy-3′-(3-p-tolylureido)biphenyl-2-carboxylic acid]
IC50 (IDO [1]): 160 nM
IC50 (IDO [2]): 470 nM

COc1ccc(-c2ccc(Oc3cccc4c3CCCC4=O)c(NC(=O)Nc3ccccc3C)c2)cc1C(=O)O [Example 150, 4-methoxy-4′-(5-oxo-5,6,7,8-tetrahydronaphthalen-1-yloxy)-3′-(3-o-tolylureido)biphenyl-3-carboxylic acid]
IC50 (IDO [1]): 710 nM
IC50 (IDO [2]): 7190 nM

CC(C)(C)c1ccccc1Oc1ccc(-c2cc(Cl)ccc2C(=O)O)cc1NC(=O)Nc1ccccc1Cl [Example 166, 4′-(2-tert-butylphenoxy)-5-chloro-3′-(3-(2-chlorophenyl)ureido)biphenyl-2-carboxylic acid]
IC50 (IDO [1]): 1300 nM
IC50 (IDO [2]): 3630 nM

Cc1ccc(NC(=O)Nc2cc(-c3cc(Cl)ccc3C(=O)O)ccc2Oc2ccccc2C(C)(C)C)cc1 [Example 168, 4′-(2-tert-butylphenoxy)-5-chloro-3′-(3-p-tolylureido)biphenyl-2-carboxylic acid]
IC50 (IDO [1]): 240 nM
IC50 (IDO [2]): 660 nM

Cc1ccccc1NC(=O)Nc1cc(-c2cc(Cl)ccc2C(=O)O)ccc1Oc1ccccc1C(C)(C)C [Example 167, 4′-(2-tert-butylphenoxy)-5-chloro-3′-(3-o-tolylureido)biphenyl-2-carboxylic acid]
IC50 (IDO [1]): 1670 nM
IC50 (IDO [2]): 3810 nM
